{"source": "patent US20160333073A1", "about": "“DRUG DELIVERY SYSTEM” (UCL BUSINESS PLC, priority 2014, published 2016)", "key": {"[1]": {"set-up": "species or system Sprague Dawley rats", "settings": "rat, in vivo", "protocol": "FIG. 5. The retention of HABP35-F and RP2-F in rat vitreous after 48 hours. 2.5 μl of HABP35-F or RP2-F (250 nmole/ml) was injected into the vitreous of adult male Sprague Dawley rats. After 48 hours the eyes were removed. The cornea and lens was removed and the eye cup opened out into a Maltese cross. The vitreous and retina was photographed using an epifluorescent microscope (using equal exposure settings). A) Fluorescence of HABP35-F in the vitreous 48 hours following injection. B) Fluorescence of RP-F in the vitreous 48 hours following injection. C) Collage photograph showing fluorescence of HABP35-F in the vitreous 48 hours following injection.\nFIG. 6. The in vivo diffusion study of HABP35-FP (higher line) and RP2-F (lower line) in rat vitreous over time. […] At different time points (0, 8, 24, 72, 168 hours) rats were sacrificed and the concentration of peptide in the vitreous was measured by fluorescence. […]\nHABP-35-F was modified to protect the N-terminus from enzymatic degradation, through conversion of the terminal leucine to its D-configuration and by acetylation. […] The vitreous was extracted and peptide concentration measured by assessing fluorescence of the extracted vitreous. Three eyes were assessed, for each peptide, at each time point. In addition, the fluorescence of the vitreous was directly assessed on eye-cup flat mounts using an epifluorescent microscope."}, "[2]": {"assay": "HA binder screening ELISA on non-covalently bound HA", "assay_type": "binding", "settings": "for specific binding to non-covalently bound HA (A450 HA wells minus blank wells): n=3, compared with RP-B", "protocol": "FIG. 7. […] Three ELISAs were performed for each concentration (n=3). Error bars represent standard deviation.\nFIG. 8. […] Specific binding was obtained by subtracting A450 of blank wells from A450 of HA loaded wells, from the readings represented in FIG. 7. Three ELISAs were performed for each concentration (n=3). […] Error bars represent standard deviation.\nWells of a clear polystyrene Amine Surface 96 well ELISA plates (Corning Life Sciences Ltd) were loaded with 100 μl of 1 mg/ml HA sodium salt (Sigma-Aldrich Ltd) in 0.1 M 2-[N-morpholino] ethane sulfonic acid (MES, pH 4.5-5, Sigma-Aldrich Ltd). The wells were incubated for three hours at room temperature on an orbital shaker. All further incubations occurred at room temperature on an orbital shaker.\nWells were then washed three times with wash buffer (0.05% Tween 20 (Sigma-Aldrich Ltd) in phosphate buffered saline (PBS), pH 7.2-7.4). PBS was prepared to the following formula: 137 mM sodium chloride, 2.7 mM potassium chloride, 8.1 mM sodium phosphate dibasic, 1.5 mM potassium phosphate monobasic, pH 7.2-7.4, 0.22 μm filtered. 300 μl of 3% BSA (Sigma-Aldrich Ltd) in PBS was used to block each well. After 90 minutes incubation the wells were washed again three times. Different concentrations of biotinylated HA binding peptides, or control peptides, were then added, dissolved in 100 μl of 3% BSA PBS, and incubated for 1 hour. Three further washes were performed. 100 μl of streptavidin-horse radish peroxidase (S-HRP) (R&D Systems Ltd) (diluted to a working concentration of 1:200 in PBS) was added to each well, to detect any bound biotinylated peptide. The wells were incubated for 20 minutes, protected from light, followed by three further washes. 100 μl of tetramethylbenzidine (TMB)/H2O2, was added to each well. The wells were incubated for 10 minutes, protected from light. The reaction was stopped with 50 μl of 1 M H2SO4. Optical density of each well was read immediately, using a Modulus Microplate Reader set to 450 nm, One-way analysis of variance (ANOVA) was used to deter line statistical significance between groups (GraphPad Prism 5, GraphPad software Ltd)."}, "[3]": {"assay": "Degradation by proteases in rabbit vitreous (mass spectrometry / UPLC-MS)", "protocol": "FIG. 10. […] UPLC-MS=ultra performance liquid chromatography-mass spectrometry.\nFIG. 11. The effect of the protease inhibitors aprotinin (8 μM), bestatin (500 μM), E-64 (150 μM), and leupeptin (200 μM) on HABP35-F detection by UPLC-MS, after 6 hours incubation in rabbit vitreous. […] The experiment was performed three times (n=3). UPLC-MS=ultra performance liquid chromatography-mass spectrometry.\nIn order to assess degradation of HABP35-F by proteases present in rabbit vitreous, HABP35-F was incubated in rabbit vitreous for a period of 12 hours. Samples of HABP35-F in rabbit vitreous were taken at 0 and 12 hours and the mass spectrum traces for HABP35-F were compared.\nIn order to confirm that fragmentation occurred at the N-terminus (as opposed to the C-terminus), HABP35-B was incubated for 12 hours with rabbit vitreous.\nIn order to further confirm that HABP35-F was being enzymatically digested at the N-terminus, the proportion of HABP35-F that could be detected following incubation was assessed, with or without bestatin. Bestatin is an aminopeptidase inhibitor. Aminopeptidases catalyse the cleavage of amino acids from the N-terminus of peptides/proteins.\nIn order to optimise detection, further other protease inhibitors were added (aprotinin, bestatin, E-64, leupeptin)."}, "[4]": {"assay_type": "binding, rabbit", "source_text": "The affinity of the peptide may be defined in terms of its binding affinity to hyaluronic acid and/or collagen, and assessed by way of its diffusion from one chamber of a micro-equilibrium dialyser containing vitreous matter (e.g. hyaluronic acid) to another chamber containing vitreous matter in the absence of such a binding peptide. Thus, the concentration of peptide remaining in the initial chamber over time provides a quantitative parameter for assessing the amount of peptide remaining in the vitreous, this parameter being innately governed by peptide binding properties to hyaluronic acid. A comparison with the binding properties of the peptide of SEQ ID No. 1 allows the relative affinity to the determined (for example, see FIG. 3).\nFIG. 1. Harvard Fast Micro-Equilibrium Dialyzer. Each dialyzer is made of polytetrafluoroethylene (PTFE) and contains a 250 μl chamber on either side of a 100 kDa molecular weight cut off (MWCO) cellulose acetate membrane. The chambers were incubated at room temperature for up to 8 hours, and the diffusion from one chamber to the other was assessed. […]\nIn order to study the diffusion properties of HABP35-F in vitreous, Fast Micro-Equilibrium Dialyzers (250 μl chamber volume) were purchased from Harvard Apparatus Ltd (UK). […] The rate at which HABP35-F and RP2-F diffused from one side of the dialyzer to the other was assessed over time. […]"}, "[5]": {"assay_type": "binding", "protocol": "FIG. 1. Harvard Fast Micro-Equilibrium Dialyzer. Each dialyzer is made of polytetrafluoroethylene (PTFE) and contains a 250 μl chamber on either side of a 100 kDa molecular weight cut off (MWCO) cellulose acetate membrane. The chambers were incubated at room temperature for up to 8 hours, and the diffusion from one chamber to the other was assessed. The side in which the peptide is placed is termed the donating chamber. The other side, towards which the peptide diffuses, is termed the receiving chamber.\nFIG. 4. The diffusion of HABP35-F (left-hand column in each case) and RP2-F (right-hand column in each case) in hyaluronic acid, using a Harvard Fast Micro-Equilibrium Dialyzer. […] Concentration of HABP35-F or RP2-F, in the donating and receiving chambers, was measured at the 8-hour time point (n=3). The concentration gradient was then determined (difference between the concentration of the donating and receiving chambers). […]\nIn order to assess whether the retention in the donating chamber was due to an interaction with hyaluronic acid (HA), a solution of 2.5 mg/ml HA (in HEPES buffered saline) was added to each chamber, instead of rabbit vitreous. 20 nmole/ml of HABP35-F or RP2-F was added to the donating chamber and diffusion was measured over 8 hours. […] As a control, diffusion in HEPES buffered saline (HBS) alone was also assessed. […]"}}, "note": "Like-named read-outs stand apart in the source and are kept apart here. Square brackets hold non-standard residues; d marks the D form. Peptide text beside a SMILES is read from it. * marks the point of attachment. FITC = O=C1OC2(c3ccc(O)cc3Oc3cc(O)ccc32)c2ccc(NC(=S)*)cc21", "data": [{"compound": "CC[C@H](C)[C@H](NC(=O)[C@H](CCCCN)NC(=O)[C@H](CCC(N)=O)NC(=O)[C@H](CCCCN)NC(=O)[C@@H](CC(C)C)NC(C)=O)C(=O)N[C@@H](CCCCN)C(=O)N[C@@H](Cc1c[nH]cn1)C(=O)N[C@H](C(=O)N[C@H](C(=O)N[C@@H](CCCCN)C(=O)N[C@@H](CC(C)C)C(=O)N[C@@H](CCCCN)C(=O)N[C@H](C(=O)N[C@H](C(=O)N[C@H](C(=O)N[C@@H](CCCCN)C(=O)N[C@@H](CC(C)C)C(=O)N[C@@H](CCCNC(=N)N)C(=O)N[C@@H](CO)C(=O)N[C@@H](CCC(N)=O)C(=O)N[C@@H](CC(C)C)C(=O)N[C@H](C(=O)N[C@@H](CCCCN)C(=O)N[C@@H](CCCNC(=N)N)C(=O)N[C@@H](CCCCN)C(=O)N[C@@H](CCC(N)=O)C(=O)N[C@@H](CC(N)=O)C(=O)NCC(=O)NCC(=O)NCC(=O)N[C@@H](CO)C(=O)N[C@@H](CCCCNC(=S)Nc1ccc2c(c1)C(=O)OC21c2ccc(O)cc2Oc2cc(O)ccc21)C(N)=O)C(C)C)C(C)C)C(C)C)C(C)C)C(C)C)C(C)C", "note": "[HABP35-FP] (Ac-[dL]KQKIKHVVKLKVVVKLRSQLVKRKQNGGGSK(FITC)-NH2)", "values": [{"measurement": "fluorescence of peptide in the vitreous (epifluorescent microscopy)", "setting": "[1]", "result": "increased retention"}]}, {"compound": "GAHWQFNALTVR-GGGS-K(Biotin)-amide [Pep1-B, reference compound]", "values": [{"measurement": "specific binding to non-covalently bound HA (A450 HA wells minus blank wells)", "setting": "[2]", "result": "significantly greater specific binding at all concentrations tested"}]}, {"compound": "LKQKIKHVVKLKVVVKLRSQLVKRKQN-GGGS-K(Biotin)-amide [HABP35-B]", "values": [{"measurement": "degradation in rabbit vitreous (mass spectrum)", "setting": "[3]; incubation in rabbit vitreous, 12 hours vs 0 hours", "result": "a new ion also appeared, containing a comparable loss in MW to that seen with HABP35-F"}, {"measurement": "non-specific binding (blocked wells without HA)", "setting": "[2]", "result": "high non-specific binding"}, {"measurement": "specific binding to non-covalently bound HA (A450 HA wells minus blank wells)", "setting": "[2]", "result": "specific signal deteriorated at higher concentrations"}, {"measurement": "concentrations showing specific binding relative to HABP42-B or Pep1-B", "setting": "[2]; non-covalently bound HA", "result": "ten-fold less"}]}, {"compound": "SATPASAPYPLAGGGSSATPASAPYPLAGGGS-K(FITC)-amide [RP2-F, reference compound]", "values": [{"measurement": "peptide concentration in / retention in the donating chamber", "setting": "[4]; rabbit vitreous, 20 nmole/ml peptide in donating chamber, 100 kDa MWCO membrane, 2, 4, 6 and 8 hours, fluorescence", "result": "almost reaching equilibrium"}, {"measurement": "concentration gradient (concentration in donating chamber - concentration in receiving chamber)", "setting": "[4]; rabbit vitreous, 2, 4, 6 and 8 hours", "result": "almost reached zero"}]}, {"compound": "CC(C)C[C@H](NC(=O)[C@@H](O)[C@H](N)Cc1ccccc1)C(=O)O", "note": "[Bestatin, reference compound]", "values": [{"measurement": "amount of HABP35-F detectable by UPLC-MS", "setting": "[3]; HABP35-F 10 nmole/ml, 6 hours incubation in rabbit vitreous, bestatin 250 μM", "result": "significantly increased"}]}, {"compound": "CC[C@H](C)[C@H](NC(=O)[C@H](CCCCN)NC(=O)[C@H](CCC(N)=O)NC(=O)[C@H](CCCCN)NC(=O)[C@@H](N)CC(C)C)C(=O)N[C@@H](CCCCN)C(=O)N[C@@H](Cc1c[nH]cn1)C(=O)N[C@H](C(=O)N[C@H](C(=O)N[C@@H](CCCCN)C(=O)N[C@@H](CC(C)C)C(=O)N[C@@H](CCCCN)C(=O)N[C@H](C(=O)N[C@H](C(=O)N[C@H](C(=O)N[C@@H](CCCCN)C(=O)N[C@@H](CC(C)C)C(=O)N[C@@H](CCCNC(=N)N)C(=O)N[C@@H](CO)C(=O)N[C@@H](CCC(N)=O)C(=O)N[C@@H](CC(C)C)C(=O)N[C@H](C(=O)N[C@@H](CCCCN)C(=O)N[C@@H](CCCNC(=N)N)C(=O)N[C@@H](CCCCN)C(=O)N[C@@H](CCC(N)=O)C(=O)N[C@@H](CC(N)=O)C(=O)NCC(=O)NCC(=O)NCC(=O)N[C@@H](CO)C(=O)N[C@@H](CCCCNC(=S)Nc1ccc2c(c1)C(=O)OC21c2ccc(O)cc2Oc2cc(O)ccc21)C(N)=O)C(C)C)C(C)C)C(C)C)C(C)C)C(C)C)C(C)C", "note": "[HABP35-F] (H-LKQKIKHVVKLKVVVKLRSQLVKRKQNGGGSK(FITC)-NH2)", "values": [{"measurement": "total amount of peptide in both chambers (degradation) during diffusion study", "setting": "[5]", "result": "minimal degradation"}, {"measurement": "degradation in rabbit vitreous (mass spectrum)", "setting": "[3]", "result": "this new molecule was HABP35-F minus the N-terminal leucine"}, {"measurement": "fluorescence of peptide in the vitreous (epifluorescent microscopy)", "setting": "[1]", "result": "visibly more fluorescent peptide"}]}]}
